Assays:
[1] = in vitro; conditions: rat, liver microsomes
[2] = in vitro; conditions: mouse, liver microsomes
[3] = in vitro; conditions: human, liver microsomes

## CC(C1=NOC(C)(C(=O)N[C@@H](Cc2ccc(NC(=O)c3c(Cl)cccc3Cl)cc2)C(=O)O)C1)c1ccccc1 (stereo partly drawn)
[1]
  remaining at 0.5 h: 84.5%
[2]
  remaining at 0.5 h: 99%
[3]
  remaining at 0.5 h: 95%
